Key:
[1] = system: acylethanolamide hydrolyzing enzyme (FAAH and an enzyme different from FAAH) in rat intestinal homogenate; experiment: OEA and anandamide (acylethanolamide) hydrolysis in rat intestinal homogenate; format: biochemical; settings: for inhibition of OEA hydrolysis: pH 7.0, 50 μM 3H-OEA, 20 min, inhibitor concentration not given ('same concentration')
Description: Enzymatic hydrolysis of OEA is investigated in an assay containing 5-500 μg of intestinal protein incubated with 1-500 μM of ^3H-OEA ([1-^3H-ethanolamine]OEA and dilutions thereof with non-radioactive OEA to obtain a specific activity of 0.1-100,000 dpm/pmol) or ^3H-anandamide ([1−^3H-ethanolamine]anandamide and dilutions thereof with non-radioactive anandamide to obtain a specific activity of 0.1-100,000 dpm/pmol) in a total volume of 100-500 μl of 10-100 mM buffer (pH 3-11), initially utilizing 100 mM Tris-HCl (pH 8.0) containing 0-2 mM EDTA and 0-5 mg/ml of fatty acid-free bovine serum albumin with or without addition of D-erythro-MAPP (or a related compound; dissolved in 1-10 μl ethanol) in a final concentration of 0.0001-1000 μM (1-10 μl ethanol is added to control assays). Incubations are carried out at 37° C. for 0-120 min and samples are withdrawn at 2-3 time points. The reaction in a sample is terminated by addition of 200-1000 μl of chloroform:methanol (1:1 v/v) and cooling on ice, followed by 10 min centrifugation at low speed, where after 50-250 μl of the upper phase is extracted and the radio-labeled product ethanolamine formed is quantified by liquid scintillation counting. […]
The reaction in a sample is terminated by addition of 400 μl chloroform:methanol (1:1 v/v) and cooling on ice, followed by 10 min centrifugation at low speed, where after 100 μl of the upper phase is extracted and the radio-labeled product ethanolamine formed is quantified by liquid scintillation counting. In another set of experiments the following assay conditions are adjusted—in order to be identical to those of the ceramidase assay (see example 1B)—by using 25 μg of protein from rat intestinal (jejunum) homogenate in a total volume of 100 μl, 50 μM of ^3H-oleoylethanolamide (OEA; 25.000 dpm) or ^3H-anandamide (AEA; 25.000 dpm), 100 mM citrate phosphate (7.0), 8 mM CHAPS. […] Incubation at 37° C. is carried out for 0 and 20 min after establishment of linearity of product formation within this time frame. […]

[2] = system: ceramidase; experiment: Ceramide hydrolysis in rat intestinal homogenate; format: biochemical; settings: for inhibition of ceramide hydrolysis: pH 7.0, 50 μM 14C-octanoyl-D-sphingosine, 25 μg protein, 20 min, inhibitor concentration not given ('same concentration')
Description: Enzymatic hydrolysis of ceramide is measured in an assay containing 5-500 μg of intestinal protein incubated with 1-5000 μM of ^14C-ceramide [(N-[1-^14C]acyl-D-erythro sphingosine (with the acyl group being from six to twenty carbon atoms) and dilutions thereof with non-radioactive ceramide to obtain a specific activity of 0.1-100,000 dpm/pmol], which is sonicated in buffer or added in 5-50 μl of ethanol, to a total volume of 50-500 μl of 10-100 mM buffer (pH 3-11) initially utilizing 100 mM Tris-HCl (pH 8.0) containing 0-100 mM CHAPS, 0-10 mM DTT, 0-1% Nonidet P-40, 0-5 mg/ml of bovine serum albumin, and 0-500 mM NaCl with or without addition of D-erythro-MAPP (or a related compound; dissolved 1-10 μl ethanol) in a final concentration of 0.0001-1000 μM (1-10 μl ethanol is added to control assays). Incubations are carried out at 37° C. for 0-120 min and samples are withdrawn at 2-3 time points. The reaction in each sample is terminated by addition of 200-1000 μl of methanol:chloroform:heptane (28:25:20 v/v/v) and 50-400 μl of potassium carbonate buffer (pH 10). After mixing, the samples are centrifuged 1-20 min at low speed centrifugation and 50-400 μl of the upper phase is extracted and the radio-labeled product, free fatty acid, in the upper phase is quantified by liquid scintillation counting. From selected samples, another 50-400 μl aliquot of the upper phase as well as 50-400 μl of the lower phase are evaporated to dryness under a stream of nitrogen, re-dissolved in 10-200 μl of chloroform:methanol (19:1 v/v) and applied on thin-layer chromatography plates, eluted in chloroform:methanol:acetic acid (94:1:5 v/v/v) followed by quantification of the distribution of the radiolabeled free fatty acid in the two phases using a Phosphorlmager scanner (STORM; Molecular Dynamics, Sunnyvale, Calif., USA) and ImageQuant software (GE Health Care, Amersham, United Kingdom). The distribution of released fatty acid is used to calculate the total amount of product formed in each sample. […]

[3] = system: dietary obese mice; experiment: Sub-chronic food intake, water intake and body weight study in dietary obese mice; format: in vivo; settings: for cumulative food intake: D-threo-NMAPPD 30 mg/kg, OEA 2 mg/kg, or both mixed, high-fat diet, mean±SEM
Description: Food intake studies are performed with male Sprague-Dawley rats (250-350 g) or male C57BL/6J mice (Charles River, Sulzfeld, Germany). […] These animals are left on the diet for 12 weeks before the experiment is commenced. The animals are group randomized into weight-matched groups of n=4-12 to receive up to four administrations (0.1-10 ml/kg p.o., i.p., s.c., or i.v.) of a test compound (e.g. MAPP or NMAPPD) or vehicle (saline optionally with Tween 80, polyethylene glycol, DMSO, ethanol, Cremophor excipient) with at least seven days interval. All compounds are administered just prior to the beginning of the dark period optionally after a 24 h fasting period. Food intake (digital balance) and water intake (registered gravimetrically or by means of lick counts) and activity (consecutive beam breaks) are monitored for at least 12 hours following the time of injection. After the treatment, the animals are euthanized by use of CO2 followed by decapitation.
3C. Furthermore, a study with dietary obese mice was carried out. After 12 weeks on high-fat diet, animals were stratified according to weight. At day −3, animals were randomised in 5 groups (n=9-10 in each group) to participate in one of following drug treatment groups; vehicle (5% Tween 80, 5% polyethylene glycol, 90% saline), OEA 2 mg/kg, OEA 5 mg/kg, D-threo-NMAPPD 30 mg/kg, D-threo-NMAPPD 30 mg/kg+OEA 2 mg/kg (mixed). The animals received one intraperitoneal injection daily (2 ml/kg) of vehicle or drug(s) suspended in vehicle at […]. The experiment was preceded by a 3 day run-in period with mock injections and handling to habituate the animals to the injection paradigm. On day 0 the animals were dosed for the first time. All animals were fed high-fat diet ad lib—also during the treatment period. Body weight, food and water intake was measured every other day for the following 14 days depending on the animal's state.

[4] = system: diet-induced obese mice; settings: 5 mg/kg OEA i.p. daily, from day 2 and on, refs (9,22); cited from earlier work
[5] = system: diet-induced obese rats; settings: 5 mg/kg OEA i.p. daily, from day 2 and on, refs (9,22); cited from earlier work

## CCCCCCCCCCCCCC(=O)N[C@H](C)[C@@H](O)c1ccccc1 [D-erythro-MAPP, (1S,2R) D-erythro-N-myristoyl-2-amino-1-phenyl-propanol]
[1]; 25 μg protein
  inhibition of OEA hydrolysis: 11%
[1]; pH 7.0, 50 μM 3H-anandamide, inhibitor concentration not clearly printed
  effect on AEA hydrolysis: unaffected
[2]
  inhibition of ceramide hydrolysis: approximately 24%

## CCCCCCCCCCCCCC(=O)N[C@H](CO)[C@H](O)c1ccc([N+](=O)[O-])cc1 [D-threo-NMAPPD, (1R,2R) D-threo-N-myristoyl-2-amino-1-(4′-nitrophenyl)-1,3-propandiol]
[1]; 25 μg protein
  inhibition of OEA hydrolysis: 30%
[1]; pH 7.0, increasing concentrations (FIG. 2C)
  dose dependence of inhibition of OEA hydrolysis: dose-dependent inhibition
[2]
  inhibition of ceramide hydrolysis: 30%
[3]; D-threo-NMAPPD 30 mg/kg i.p. daily (alone and with OEA 2 mg/kg), from day 1
  food intake versus vehicle: consistently and significantly reduced
[3]; daily i.p., D-threo-NMAPPD 30 mg/kg at day 1 and day 12, or with OEA 2 mg/kg (FIG. 4B)
  water intake versus vehicle: significant decreased water intake
[3]; day 12, daily i.p., D-threo-NMAPPD 30 mg/kg alone or with OEA 2 mg/kg, vehicle 3.7%
  loss of body weight: 8.9%
[3]; day 12, daily i.p.
  cumulative food intake: 20.4 ± 1.2 g

## CCCCCCCC/C=C\CCCCCCCC(=O)NCCO [OEA, oleoylethanolamide, reference compound]
[3]; OEA 2 mg/kg i.p. daily, day 12
  food intake versus vehicle: not significantly different
[3]; OEA 5 mg/kg i.p. daily, day 5 and 7
  food intake versus vehicle: significantly reduced food intake
[3]; day 12, daily i.p.
  cumulative food intake: 23.3 ± 1.0 g
[4]
  body weight change: reduced body weight change
[5]
  body weight change: reduced body weight change

## NC(=O)c1cccc(-c2cccc(OC(=O)NC3CCCCC3)c2)c1 [URB597, cyclohexyl carbamic acid 3′-carbamoyl-biphenyl-3-yl ester, reference compound]
[1]; 10 μM URB597, pH 5.5 to pH 10.5 (FIG. 3C)
  effect on hydrolysis of OEA and AEA over pH range: to varying degrees were inhibited
[1]; 10 μM inhibitor, pH 7.0, 50 μM substrate, 25 μg protein, 20 min 37° C. (FIG. 2A)
  inhibition of acylethanolamide hydrolysis: approximately 79%
[2]; 10 μM URB597, pH profile (FIG. 3C)
  effect on ceramide hydrolysis over pH range: completely unaffected
